Measured values taken from publication PMC4486710 (Parasites & Vectors, 2015).

T1: TcCAT1.1 (Trypanosoma cruzi, UniProt A0A0H4FPU8)
T1 construct: gene C3747_66g20; full-length ORF, untagged, pYES2, expressed in S. cerevisiae HSC100-3C (can1 gap1 lyp1); 10 predicted transmembrane helices
T1 sequence (A0A0H4FPU8 1-448): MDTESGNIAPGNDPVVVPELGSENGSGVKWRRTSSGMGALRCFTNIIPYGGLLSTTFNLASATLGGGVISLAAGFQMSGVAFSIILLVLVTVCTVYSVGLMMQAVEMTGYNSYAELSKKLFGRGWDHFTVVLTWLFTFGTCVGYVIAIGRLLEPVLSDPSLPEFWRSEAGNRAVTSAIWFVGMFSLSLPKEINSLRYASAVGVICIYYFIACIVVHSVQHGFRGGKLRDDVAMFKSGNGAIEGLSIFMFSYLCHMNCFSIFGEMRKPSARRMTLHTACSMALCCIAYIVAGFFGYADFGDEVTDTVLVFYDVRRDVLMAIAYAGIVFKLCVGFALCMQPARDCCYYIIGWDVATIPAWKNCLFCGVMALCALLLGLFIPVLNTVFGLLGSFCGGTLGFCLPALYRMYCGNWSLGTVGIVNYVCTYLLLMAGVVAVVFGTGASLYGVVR

B1: TcCAT1.1 (Trypanosoma cruzi) (protein)
chain: MDTESGNIAPGNDPVVVPELGSENGSGVKWRRTSSGMGALRCFTNIIPYGGLLSTTFNLASATLGGGVISLAAGFQMSGVAFSIILLVLVTVCTVYSVGLMMQAVEMTGYNSYAELSKKLFGRGWDHFTVVLTWLFTFGTCVGYVIAIGRLLEPVLSDPSLPEFWRSEAGNRAVTSAIWFVGMFSLSLPKEINSLRYASAVGVICIYYFIACIVVHSVQHGFRGGKLRDDVAMFKSGNGAIEGLSIFMFSYLCHMNCFSIFGEMRKPSARRMTLHTACSMALCCIAYIVAGFFGYADFGDEVTDTVLVFYDVRRDVLMAIAYAGIVFKLCVGFALCMQPARDCCYYIIGWDVATIPAWKNCLFCGVMALCALLLGLFIPVLNTVFGLLGSFCGGTLGFCLPALYRMYCGNWSLGTVGIVNYVCTYLLLMAGVVAVVFGTGASLYGVVR
notes: full-length ORF, untagged, pYES2, expressed in S. cerevisiae HSC100-3C (can1 gap1 lyp1); 10 predicted transmembrane helices

Columns and labels:
TcCAT1.1 = molecular target: T1, TcCAT1.1; assay: competition of [3H]-arginine uptake in transformed S. cerevisiae; format: cell-based; conditions: 1000 µM, 10 µM [3H]-arginine, 1 mM competitor, 30 min, room temperature
From the text: competition of [3H]-arginine uptake in transformed S. cerevisiae on TcCAT1.1

[1] = substrate: N=C(N)NCCC[C@H](N)C(=O)O; assay: radiolabelled uptake in transformed S. cerevisiae, Michaelis-Menten fit; format: cell-based, Trypanosoma cruzi; conditions: labelled compound; glucose-repressed background subtracted; three trials
From the text: radiolabelled uptake in transformed S. cerevisiae, Michaelis-Menten fit on TcCAT1.1

Molecule	[^3H]-Arginine uptake(%) (TcCAT1.1)	further results
C[C@H](N)C(=O)O [alanine]	67.9 ± 2.6%	
N=C(N)NCCCC[C@H](N)C(=O)O [homoarginine]	65.5 ± 12.1%	
N[C@@H](Cc1cnc[nH]1)C(=O)O [histidine]	67.3 ± 8.8%	
N=C(N)NOCC[C@H](N)C(=O)O [canavanine]		[^3H]-Arginine uptake(%) (TcCAT1.1; possible substrate): 28.9 ± 6.3%
NCCCNCCCCNCCCN [spermine]	65.0 ± 6.6%	
NC(=O)CC[C@H](N)C(=O)O [glutamine]	74.2 ± 25.6%	
NC(=O)C[C@H](N)C(=O)O [asparagine]	78.0 ± 6.1%	
NCCCC[C@H](N)C(=O)O [lysine]	78.0 ± 26.7%	
CC(C)C[C@H](N)C(=O)O [leucine]	67.7 ± 16.2%	
O=C(O)[C@@H]1CCCN1 [proline]	72.3 ± 12.1%	
B1		Km [1]: 85 ± 40 µM
